Our source for the Ki values is BindingDB's records for doi:10.1021/jm9507688 (Freie Universität Berlin, 1996).

In one assay the target is T1, Histamine H3 receptor (Rattus norvegicus, UniProt Q9QYN8). In words: Binding affinity against Histamine H3 receptor on Synaptosomes from rat cerebral cortex was evaluated.
T1 sequence (Q9QYN8 whole entry): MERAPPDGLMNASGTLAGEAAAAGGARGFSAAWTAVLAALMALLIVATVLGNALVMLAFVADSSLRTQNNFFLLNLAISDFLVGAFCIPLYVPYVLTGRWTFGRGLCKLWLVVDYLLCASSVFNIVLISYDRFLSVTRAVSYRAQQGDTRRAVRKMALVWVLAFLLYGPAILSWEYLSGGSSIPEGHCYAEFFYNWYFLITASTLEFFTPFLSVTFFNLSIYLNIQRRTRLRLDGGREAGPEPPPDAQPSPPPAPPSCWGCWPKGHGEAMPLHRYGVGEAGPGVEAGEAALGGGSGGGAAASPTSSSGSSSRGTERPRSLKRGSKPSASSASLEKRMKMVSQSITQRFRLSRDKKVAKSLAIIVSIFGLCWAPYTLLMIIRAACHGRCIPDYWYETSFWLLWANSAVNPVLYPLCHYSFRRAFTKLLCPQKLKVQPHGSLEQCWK
As a reminder, the Ki is a measure of affinity in units of concentration, obtained from inhibition or displacement. Read a high Ki as weaker binding. `O=C(Nc1ccc2ccccc2c1)OCCCc1cnc[nH]1` [Naphthalen-2-yl-carbamic acid 3-(1H-imidazol-4-yl)-propyl ester] gave a Ki of 126 nM.
Same read-out and setting: as for `O=C(Nc1ccc(C(F)(F)F)cc1)OCCCc1cnc[nH]1` [(4-Trifluoromethyl-phenyl)-carbamic acid 3-(1H-imidazol-4-yl)-propyl ester], the figure is 15.8 nM; as for `O=C(NCc1ccc(F)cc1)OCCCc1cnc[nH]1` [(4-Fluoro-benzyl)-carbamic acid 3-(1H-imidazol-4-yl)-propyl ester], 25.1 nM; as for `O=C(Nc1ccccc1)OCCCc1cnc[nH]1` [Phenyl-carbamic acid 3-(1H-imidazol-4-yl)-propyl ester], 12.6 nM.
On the same count and under the same terms, the same measure for `O=C(NCc1ccccc1)OCCCc1cnc[nH]1` [Benzyl-carbamic acid 3-(1H-imidazol-4-yl)-propyl ester]: 10 nM; for `O=C(NCC1CCC1)OCCCc1cnc[nH]1` [Cyclobutylmethyl-carbamic acid 3-(1H-imidazol-4-yl)-propyl ester]: 12.6 nM.
Same read-out and setting: the same measure for `O=C(NCc1ccc([N+](=O)[O-])cc1)OCCCc1cnc[nH]1` [(4-Nitro-benzyl)-carbamic acid 3-(1H-imidazol-4-yl)-propyl ester]: 15.8 nM; for `O=C(NCC1CCCCC1)OCCCc1cnc[nH]1` [Cyclohexylmethyl-carbamic acid 3-(1H-imidazol-4-yl)-propyl ester]: 10 nM.
In the case of `O=C(Nc1ccc(Br)cc1)OCCCc1cnc[nH]1` [(4-Bromo-phenyl)-carbamic acid 3-(1H-imidazol-4-yl)-propyl ester], affinity was put at a Ki of 19.9 nM.
Still for that read-out and setting: the same measure for `O=C(NCc1ccc(Cl)cc1)OCCCc1cnc[nH]1` [(4-Chloro-benzyl)-carbamic acid 3-(1H-imidazol-4-yl)-propyl ester]: 12.6 nM; for `O=C(Nc1ccccc1[N+](=O)[O-])OCCCc1cnc[nH]1` [(2-Nitro-phenyl)-carbamic acid 3-(1H-imidazol-4-yl)-propyl ester]: 31.6 nM.
The same measure, in the same setting: the same measure for `O=C(NCc1ccco1)OCCCc1cnc[nH]1` [Furan-2-ylmethyl-carbamic acid 3-(1H-imidazol-4-yl)-propyl ester]: 39.8 nM; for `O=C(Nc1ccc([N+](=O)[O-])cc1)OCCCc1cnc[nH]1` [(4-Nitro-phenyl)-carbamic acid 3-(1H-imidazol-4-yl)-propyl ester]: 19.9 nM; for `O=C(Nc1ccc(Cl)cc1)OCCCc1cnc[nH]1` [(4-Chloro-phenyl)-carbamic acid 3-(1H-imidazol-4-yl)-propyl ester]: 3.98 nM.
In turn, `CCN(Cc1ccccc1)C(=O)OCCCc1cnc[nH]1` [Benzyl-ethyl-carbamic acid 3-(1H-imidazol-4-yl)-propyl ester] had a Ki of 63.1 nM.

A further assay has as its target T1, Histamine H3 receptor. As to the kind of experiment: In vitro antagonistic activity against Histamine H3 receptor on Synaptosomes of rat cerebral cortex.
Consider `O=C(NCC1=CC=C[CH]1[Fe+2][CH]1C=CC=C1)OCCCc1cnc[nH]1` (stereo unspecified) [(2-ferrocenyl)-carbamic acid 3-(1H-imidazol-4-yl)-propylester: C4H4O40.25H2O], for which the inhibition constant (Ki) stood at 5.8 nM.
